This experiment has as its system CD2F1 mice, L1210 leukemia ip, survival T/C. Description: NCI In Vivo Anticancer Drug Screen. Data for tumor model L1210 Leukemia (intraperitoneal) in CD2F1 (CDF1) mice. The settings on record: endpoint: mean survival time, higher = longer survival. In a few lines: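 Mice carrying a transplanted tumor received test compound or vehicle alone. The value is the measurement in the treated group divided by that in the vehicle-treated control group.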

[1] abbreviates: dose: 100.0 mg/kg/injection, schedule: Q04DX003 (ip), vehicle: saline with Tween-80.
Where [2] appears, read: dose: 200.0 mg/kg/injection, schedule: Q04DX003 (ip), vehicle: saline with Tween-80.
[3] abbreviates: dose: 400.0 mg/kg/injection, schedule: Q04DX003 (ip), vehicle: saline with Tween-80.
The mark [4] stands for this setting: dose: 100.0 mg/kg/injection, schedule: Q04DX002 (ip), vehicle: saline with Tween-80.
Setting [5] is: dose: 200.0 mg/kg/injection, schedule: Q04DX002 (ip), vehicle: saline with Tween-80.
Setting [6] is: dose: 100.0 mg/kg/injection, schedule: Q01DX009 (ip), vehicle: saline with Tween-80.
[7] abbreviates: dose: 200.0 mg/kg/injection, schedule: Q01DX009 (ip), vehicle: saline with Tween-80.
Setting [8] is: dose: 400.0 mg/kg/injection, schedule: Q01DX009 (ip), vehicle: saline with Tween-80.
[9] abbreviates: dose: 12.5 mg/kg/injection, schedule: Q01DX009 (ip), vehicle: saline with Tween-80.
[10] abbreviates: dose: 25.0 mg/kg/injection, schedule: Q01DX009 (ip), vehicle: saline with Tween-80.
Setting [11] is: dose: 50.0 mg/kg/injection, schedule: Q01DX009 (ip), vehicle: saline with Tween-80.
[12] abbreviates: dose: 25.0 mg/kg/injection, schedule: Q01DX009 (ip), vehicle: saline.
Setting [13] is: dose: 50.0 mg/kg/injection, schedule: Q01DX009 (ip), vehicle: saline.
Setting [14] is: dose: 100.0 mg/kg/injection, schedule: Q01DX009 (ip), vehicle: saline.
The mark [15] stands for this setting: dose: 100.0 mg/kg/injection, schedule: Q01DX001 (ip), vehicle: saline with Tween-80.
Where [16] appears, read: dose: 200.0 mg/kg/injection, schedule: Q01DX001 (ip), vehicle: saline with Tween-80.
[17] abbreviates: dose: 400.0 mg/kg/injection, schedule: Q01DX001 (ip), vehicle: saline with Tween-80.

Values joined by “and” are separate entries in the source; they are usually repeats but may differ in a detail not shown here. Equal entries are not always repeated. Inconclusive results and toxic doses are left out.

Regarding `O=S1(=O)CCCC1C(O)c1ccccc1` (configuration not stated), the T/C reads like this: (dose: 100.0 mg/kg/injection, schedule: Q04DX003 (ip), vehicle: other) 100 % of control; (dose: 200.0 mg/kg/injection, schedule: Q04DX003 (ip), vehicle: other) 95 % of control; (dose: 400.0 mg/kg/injection, schedule: Q04DX003 (ip), vehicle: other) 95 % of control.

For the compound `CCCCCCC(C#N)C(=O)OCC` (configuration not stated), the T/C (dose: 75.0 mg/kg/injection, schedule: Q01DX001 (ip), vehicle: saline) is 100 % of control; the T/C (dose: 150.0 mg/kg/injection, schedule: Q01DX001 (ip), vehicle: saline) was 96 % of control; the T/C (dose: 300.0 mg/kg/injection, schedule: Q01DX001 (ip), vehicle: saline) was 100 % of control.

In the case of `O=S(=O)(O)c1ccc(/C2=c3\cc/c([n-]3)=C(\c3ccc(S(=O)(=O)O)cc3)c3ccc([n-]3)/C(c3ccc(S(=O)(=O)O)cc3)=c3/cc/c([n-]3)=C(\c3ccc(S(=O)(=O)O)cc3)c3ccc2[n-]3)cc1.[Co]`, the T/C (dose: 50.0 mg/kg/injection, schedule: Q04DX002 (ip), vehicle: saline) was 104 % of control; the T/C (dose: 100.0 mg/kg/injection, schedule: Q04DX002 (ip), vehicle: saline) was 101 % of control; the T/C (dose: 200.0 mg/kg/injection, schedule: Q04DX002 (ip), vehicle: saline) is 101 % of control.

Regarding `O=C(O)/C=C/SCCC(=O)O`, the T/C is, setting by setting: under setting [1], 93 % of control and 101 % of control; under setting [2], 101 % of control and 94 % of control.

Consider `Cc1ccc(C(C)C)cc1NC(=O)c1ccccc1C(=O)O`, for which the T/C is 95 % of control under setting [1], 95 % of control under setting [2] and 87 % of control under setting [3].

Take `CCCCOC(=O)C(C)OC(=O)Nc1cccc(Cl)c1` (configuration not stated): the T/C runs as follows: under setting [1], 100 % of control; under setting [2], 101 % of control; under setting [3], 97 % of control.

As to `C1CSCCSCCCSCCSC1`, the T/C reads like this: (dose: 50.0 mg/kg/injection, schedule: Q04DX002 (ip), vehicle: saline with Tween-80) 96 % of control; under setting [4], 108 % of control; under setting [5], 101 % of control.

With `OCC(O)C1OC(c2ccccc2)OC(CO)C1O` (configuration not stated), the T/C is, setting by setting: (dose: 100.0 mg/kg/injection, schedule: Q04DX003 (ip), vehicle: saline + alcohol) 106 % of control; (dose: 200.0 mg/kg/injection, schedule: Q04DX003 (ip), vehicle: saline + alcohol) 100 % of control; (dose: 400.0 mg/kg/injection, schedule: Q04DX003 (ip), vehicle: saline + alcohol) 95 % of control.

As for `CCCCCCCCCCCCCCCCCC[Se]CCCCCCCCCCCCCCCCCC`, the T/C is 89 % of control under setting [6], 91 % of control under setting [7] and 95 % of control under setting [8].

With `CC(=O)c1ccccc1[N+](=O)[O-]`, the T/C under setting [6] was 94 % of control and the T/C under setting [7] was 95 % of control.

As for `CCOC(=O)C1=C(C)NC(C)=C(C(=O)OCC)C1c1ccc(Cl)cc1`, the T/C was 96 % of control under setting [6], 100 % of control under setting [7] and 96 % of control under setting [8].

On to `COc1cc(OC)c(NC(=O)OCCOc2cc(C)c(Cl)c(C)c2)cc1Cl`, for which the T/C reads like this: under setting [9], 95 % of control; under setting [10], 95 % of control; under setting [11], 98 % of control; under setting [6], 88 % of control.

On to `Cc1nc(NN)c([N+](=O)[O-])c(NN)n1`, for which the T/C was 89 % of control (dose: 100.0 mg/kg/injection, schedule: Q04DX003 (ip), vehicle: Klucel (hydroxypropylcellulose) (HPC)); 95 % of control (dose: 200.0 mg/kg/injection, schedule: Q04DX003 (ip), vehicle: Klucel (hydroxypropylcellulose) (HPC)); 102 % of control (dose: 400.0 mg/kg/injection, schedule: Q04DX003 (ip), vehicle: Klucel (hydroxypropylcellulose) (HPC)).

As to `COc1ccc(NC(=O)Nc2cc(OC)c(Cl)cc2OC)cc1`, the T/C by setting is: under setting [4], 96 % of control; under setting [5], 89 % of control; (dose: 400.0 mg/kg/injection, schedule: Q04DX002 (ip), vehicle: saline with Tween-80) 89 % of control.

As to `O=S(=O)(O)NC1CCCCC1`, the T/C by setting is: under setting [12], 96 % of control; under setting [13], 95 % of control; under setting [14], 91 % of control and 93 % of control.

Take `CCCCOc1ccc(C=Nc2ccc(CC)cc2)cc1`: the T/C is 101 % of control under setting [1], 97 % of control under setting [2] and 103 % of control under setting [3].

As for `ClC(Cl)(Cl)c1ccc(C(SCc2ccccc2)SCc2ccccc2)cc1`, the T/C reads like this: under setting [15], 89 % of control; under setting [16], 89 % of control; under setting [17], 97 % of control.

Turning to `CCN(C(=O)c1ccc(C(=O)N(CC)c2ccccc2)cc1)c1ccccc1`, the T/C reads like this: under setting [6], 95 % of control; under setting [7], 101 % of control; under setting [8], 90 % of control.

Take `C1=CCOCOC1`: the T/C under setting [9] is 106 % of control; the T/C under setting [10] is 96 % of control; the T/C under setting [11] is 114 % of control and 102 % of control; the T/C under setting [6] is 100 % of control and 103 % of control; the T/C under setting [1] is 100 % of control; the T/C under setting [7] is 106 % of control. The T/C under setting [2] is 118 % of control.

For the compound `NC(N)=NCCCC(N=Cc1ccccc1)C(=O)O` (configuration not stated), the T/C is, setting by setting: (dose: 100.0 mg/kg/injection, schedule: Q01DX001 (ip), vehicle: saline) 102 % of control; (dose: 200.0 mg/kg/injection, schedule: Q01DX001 (ip), vehicle: saline) 102 % of control; (dose: 400.0 mg/kg/injection, schedule: Q01DX001 (ip), vehicle: saline) 90 % of control.

Consider `O=C1OC(=O)C2C1C1CCC2C1(c1ccccc1)c1ccccc1` (configuration not stated), for which the T/C under setting [1] was 97 % of control, the T/C under setting [2] is 97 % of control and the T/C under setting [3] is 97 % of control.

On to `OCC#CCO`, for which the T/C (dose: 12.0 mg/kg/injection, schedule: Q01DX009 (ip), vehicle: saline) was 94 % of control; the T/C under setting [12] is 93 % of control; the T/C under setting [13] is 104 % of control.

With `Cc1cc(O)c(C(C)C)cc1N=O`, the T/C is, setting by setting: under setting [15], 96 % of control; under setting [6], 94 % of control; under setting [1], 103 % of control; under setting [16], 94 % of control; under setting [7], 88 % of control; under setting [2], 100 % of control. Further, the T/C is 89 % of control under setting [17], 87 % of control under setting [8] and 106 % of control under setting [3].

As to `CC1NC(C(=O)O)Cc2cc(O)c(O)cc21` (configuration not stated), the T/C is 102 % of control under setting [1], 98 % of control under setting [2] and 100 % of control under setting [3].

Regarding `CCN(CC)CCNc1nc(-c2cc(C(F)(F)F)cc(C(F)(F)F)c2)nc(C(Cl)(Cl)Cl)n1`, the T/C is 100 % of control (dose: 100.0 mg/kg/injection, schedule: Q01DX005 (ip), vehicle: saline); 93 % of control under setting [14]; 103 % of control (dose: 200.0 mg/kg/injection, schedule: Q01DX005 (ip), vehicle: saline); 93 % of control (dose: 200.0 mg/kg/injection, schedule: Q01DX009 (ip), vehicle: saline); 95 % of control (dose: 400.0 mg/kg/injection, schedule: Q01DX005 (ip), vehicle: saline); 93 % of control (dose: 400.0 mg/kg/injection, schedule: Q01DX009 (ip), vehicle: saline).

In the case of `CCCn1cnc2c(=S)nc[nH]c21`, the T/C is 119 % of control (dose: 150.0 mg/kg/injection, schedule: Q01DX Z (ip), vehicle: carboxymethylcellulose (CMC)); 150 % of control (dose: 150.0 mg/kg/injection, schedule: Q04DX003 (ip), vehicle: saline with Tween-80); 95 % of control (dose: 200.0 mg/kg/injection, schedule: Q01DX Z (ip), vehicle: carboxymethylcellulose (CMC)); 161 % of control (dose: 300.0 mg/kg/injection, schedule: Q04DX003 (ip), vehicle: saline with Tween-80); 111 % of control (dose: 600.0 mg/kg/injection, schedule: Q04DX003 (ip), vehicle: saline with Tween-80).

These data come from PubChem BioAssay AID256 (DTP/NCI, 2004).
